The text below walks through data of patent US11339161B2, “Triazolo pyridines as modulators of gamma-secretase” (Boehringer Ingelheim International GmbH, priority 2017, dated 2022).

Test [1] deals with FGFR2 (Homo sapiens, UniProt P21802). Kind of test: Z'-LYTE SelectScreen biochemical kinase assay FGFR2. The source says:
(§1) Thermo Fisher Scientific SelectScreen™ Biochemical Kinase Profiling Service Z′-LYTE™ Screening Protocol and Assay Conditions Assay Theory
(§2) The […] biochemical assay employs a fluorescence-based, coupled-enzyme format and is based on the differential sensitivity of phosphorylated and non-phosphorylated peptides to proteolytic cleavage. The peptide substrate is labeled with two fluorophores—one at each end—that make up a FRET pair. In the primary reaction, the kinase transfers the gamma-phosphate of ATP to a single tyrosine, serine or threonine residue in a synthetic FRET-peptide. In the secondary reaction, a site-specific protease recognizes and cleaves non-phosphorylated FRET-peptides. Phosphorylation of FRET-peptides suppresses cleavage by the Development Reagent. Cleavage disrupts FRET between the donor (i.e., coumarin) and acceptor (i.e., fluorescein) fluorophores on the FRET-peptide, whereas uncleaved, phosphorylated FRET-peptides maintain FRET. A ratiometric method, which calculates the ratio (Emission Ratio=Coumarin emission (445 nm)/Fluorescein emission (520 nm)) of donor emission to acceptor emission after excitation of the donor fluorophore at 400 nm, is used to quantitate reaction progress, as shown in the equation below. A significant benefit of this ratiometric method for quantitating reaction progress is the elimination of well-to-well variations in FRET-peptide concentration and signal intensities. As a result, the assay yields very high Z′-factor values (>0.7) at a low percent phosphorylation. Both cleaved and uncleaved FRET-peptides contribute to the fluorescence signals and therefore to the Emission Ratio. The extent of phosphorylation of the FRET-peptide can be calculated from the Emission Ratio. The Emission Ratio will remain low if the FRET-peptide is phosphorylated (i.e., no kinase inhibition) and will be high if the FRET-peptide is non-phosphorylated (i.e., kinase inhibition).
(§3) The Test Compounds are screened in 1% DMSO (final) in the well. For 10 point titrations, 3-fold serial dilutions are conducted from the starting concentration of the customer's choosing.
(§4) All Peptide/Kinase Mixtures are diluted to a 2× working concentration in the appropriate Kinase Buffer (see section Kinase Specific Assay Conditions for a complete description).
(§5) All ATP Solutions are diluted to a 4× working concentration in Kinase Buffer (50 mM HEPES pH 7.5, 0.01% BRIJ-35, 10 mM MgCl2, 1 mM EGTA). ATP Km apparent is previously determined using a Z″-LYTE assay.
(§6) The Development Reagent is diluted in Development Buffer (see section Kinase-Specific Assay Conditions—Direct and Cascade for a complete description).
(§7) Bar-coded Corning, low volume NBS, black 384-well plate (Corning Cat. #4514) • 1. 100 nL—100× Test Compound in 100% DMSO • 2. 2.4 μL—Kinase buffer • 3. 5 μL—2× Peptide/Kinase Mixture • 4. 2.5 μL—4×ATP Solution • 5. 30—second plate shake • 6. 60—minute Kinase Reaction incubation at room temperature • 7. 5 μL—Development Reagent Solution • 8. 30—second plate shake • 9. 60—minute Development Reaction incubation at room temperature • 10. Read on fluorescence plate reader and analyze the data Z′-LYTE Assay Controls
(§8) SelectScreen Kinase Profiling Service uses XLfit from IDBS. The dose response curve is curve fit to model number 205 (sigmoidal dose-response model).
The 2×FGFR2/Tyr 04 mixture is prepared in 50 mM HEPES pH 7.5, 0.01% BRIJ-35, 10 mM MgCl2, 4 mM MnCl2, 1 mM EGTA, 2 mM DTT. The final 10 μL Kinase Reaction consists of 0.19-1.99 ng FGFR2 and 2 μM Tyr 04 in 50 mM HEPES pH 7.5, 0.01% BRIJ-35, 10 mM MgCl2, 2 mM MnCl2, 1 mM EGTA, 1 mM DTT. After the 1 hour Kinase Reaction incubation, 5 μL of a 1:64 dilution of Development Reagent B is added.

The target of test [2] is ABL1 (Homo sapiens, UniProt P00519). Kind of test: Z'-LYTE SelectScreen biochemical kinase assay ABL1.
ABL1, sequence (P00519 whole entry): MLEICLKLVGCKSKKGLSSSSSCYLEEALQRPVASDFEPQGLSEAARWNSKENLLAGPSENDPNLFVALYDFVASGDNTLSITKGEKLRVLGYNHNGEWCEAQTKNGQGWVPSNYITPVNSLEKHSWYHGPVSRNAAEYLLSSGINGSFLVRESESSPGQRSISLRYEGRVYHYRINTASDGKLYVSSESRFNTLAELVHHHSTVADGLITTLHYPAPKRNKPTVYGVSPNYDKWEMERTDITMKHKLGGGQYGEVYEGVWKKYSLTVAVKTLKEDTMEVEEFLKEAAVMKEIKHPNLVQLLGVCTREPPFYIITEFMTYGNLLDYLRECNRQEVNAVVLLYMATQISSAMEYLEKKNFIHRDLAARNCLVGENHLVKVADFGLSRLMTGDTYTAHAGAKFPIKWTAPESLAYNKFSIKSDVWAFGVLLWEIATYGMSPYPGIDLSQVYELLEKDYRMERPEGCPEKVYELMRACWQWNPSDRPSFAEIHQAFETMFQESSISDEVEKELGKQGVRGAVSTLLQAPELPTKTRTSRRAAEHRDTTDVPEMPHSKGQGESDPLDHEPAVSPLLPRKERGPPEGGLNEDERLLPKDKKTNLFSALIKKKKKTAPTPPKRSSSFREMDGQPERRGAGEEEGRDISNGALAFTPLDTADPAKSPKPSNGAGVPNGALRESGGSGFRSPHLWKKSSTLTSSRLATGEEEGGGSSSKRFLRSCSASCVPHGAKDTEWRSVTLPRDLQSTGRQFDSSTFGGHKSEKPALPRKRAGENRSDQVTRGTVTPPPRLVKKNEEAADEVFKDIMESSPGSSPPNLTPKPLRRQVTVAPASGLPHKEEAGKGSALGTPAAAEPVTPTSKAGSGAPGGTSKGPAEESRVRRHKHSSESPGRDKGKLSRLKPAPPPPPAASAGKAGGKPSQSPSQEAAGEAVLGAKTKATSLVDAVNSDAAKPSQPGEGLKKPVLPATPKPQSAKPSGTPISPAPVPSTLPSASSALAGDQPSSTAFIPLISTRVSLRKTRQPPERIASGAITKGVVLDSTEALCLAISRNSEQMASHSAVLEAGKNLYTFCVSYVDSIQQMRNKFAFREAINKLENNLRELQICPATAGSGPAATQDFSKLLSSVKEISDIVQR
Source text: as §1, §2, §3, §4, §5, §6, §7, §8
The 2×ABL1/Tyr 02 mixture is prepared in 50 mM HEPES pH 7.5, 0.01% BRIJ-35, 10 mM MgCl2, 1 mM EGTA. The final 10 μL Kinase Reaction consists of 0.29-1.26 ng ABL1 and 2 μM Tyr 02 in 50 mM HEPES pH 7.5, 0.01% BRIJ-35, 10 mM MgCl2, 1 mM EGTA. After the 1 hour Kinase Reaction incubation, 5 μL of a 1:128 dilution of Development Reagent A is added.

The test system of test [3] is panel of 15 kinases. Kind of test: Z'-LYTE SelectScreen kinase panel: number of kinases with <40% inhibition. The note with it: of 15 kinases tested; 10 μmolar compound; ATP at Km app. The format is biochemical.
For test [4], the target named is T1, AURKA (Aurora A) (Homo sapiens, UniProt O14965).
T1 sequence (O14965 1-403): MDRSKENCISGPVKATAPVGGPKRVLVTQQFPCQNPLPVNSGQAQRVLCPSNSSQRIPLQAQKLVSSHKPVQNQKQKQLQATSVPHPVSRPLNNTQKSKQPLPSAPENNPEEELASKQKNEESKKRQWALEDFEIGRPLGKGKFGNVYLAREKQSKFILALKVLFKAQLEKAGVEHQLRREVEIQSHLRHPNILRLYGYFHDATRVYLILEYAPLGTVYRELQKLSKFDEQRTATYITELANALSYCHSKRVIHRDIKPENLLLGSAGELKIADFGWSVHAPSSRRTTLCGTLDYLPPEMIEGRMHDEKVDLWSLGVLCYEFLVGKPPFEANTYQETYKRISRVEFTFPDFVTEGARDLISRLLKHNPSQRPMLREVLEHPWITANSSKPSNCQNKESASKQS
Kind of test: Z'-LYTE SelectScreen biochemical kinase assay AURKA (Aurora A).
Source text: as §1, §2, §3, §4, §5, §6, §7, §8
The 2×AURKA (Aurora A)/Ser/Thr 01 mixture is prepared in 50 mM HEPES pH 7.5, 0.01% BRIJ-35, 10 mM MgCl2, 1 mM EGTA. The final 10 μL Kinase Reaction consists of 0.91-8.56 ng AURKA (Aurora A) and 2 μM Ser/Thr 01 in 50 mM HEPES pH 7.5, 0.01% BRIJ-35, 10 mM MgCl2, 1 mM EGTA. After the 1 hour Kinase Reaction incubation, 5 μL of a 1:4096 dilution of Development Reagent A is added.

Test [5] concerns kinases. Kind of test: Z'-LYTE SelectScreen kinase panel: number of kinases with <40% inhibition out of 15 tested. The class given is biochemical. The note with it: 10 μmolar (10000 nM) compound; [ATP] Km app; 15 kinases tested.
Setting [6] is: 10 μmolar compound concentration, ATP at Km app, read-out: FGFR2 inhibition.
Where [7] appears, read: read-out: % Inhibition mean FGFR2.
Setting [8] is: 10 μmolar compound concentration, ATP at Km app, read-out: ABL1 inhibition.
Setting [9] is: read-out: % Inhibition mean ABL1.
[10] abbreviates: 10 μmolar compound concentration, ATP at Km app, read-out: AURKA (Aurora A) inhibition.
Setting [11] is: read-out: % Inhibition mean AURKA (Aurora A).

Where two headings read alike, the source gives them in different places. Where only a bound is given, the exact number is not on record here.

FGFR2, sequence (P21802 22-821): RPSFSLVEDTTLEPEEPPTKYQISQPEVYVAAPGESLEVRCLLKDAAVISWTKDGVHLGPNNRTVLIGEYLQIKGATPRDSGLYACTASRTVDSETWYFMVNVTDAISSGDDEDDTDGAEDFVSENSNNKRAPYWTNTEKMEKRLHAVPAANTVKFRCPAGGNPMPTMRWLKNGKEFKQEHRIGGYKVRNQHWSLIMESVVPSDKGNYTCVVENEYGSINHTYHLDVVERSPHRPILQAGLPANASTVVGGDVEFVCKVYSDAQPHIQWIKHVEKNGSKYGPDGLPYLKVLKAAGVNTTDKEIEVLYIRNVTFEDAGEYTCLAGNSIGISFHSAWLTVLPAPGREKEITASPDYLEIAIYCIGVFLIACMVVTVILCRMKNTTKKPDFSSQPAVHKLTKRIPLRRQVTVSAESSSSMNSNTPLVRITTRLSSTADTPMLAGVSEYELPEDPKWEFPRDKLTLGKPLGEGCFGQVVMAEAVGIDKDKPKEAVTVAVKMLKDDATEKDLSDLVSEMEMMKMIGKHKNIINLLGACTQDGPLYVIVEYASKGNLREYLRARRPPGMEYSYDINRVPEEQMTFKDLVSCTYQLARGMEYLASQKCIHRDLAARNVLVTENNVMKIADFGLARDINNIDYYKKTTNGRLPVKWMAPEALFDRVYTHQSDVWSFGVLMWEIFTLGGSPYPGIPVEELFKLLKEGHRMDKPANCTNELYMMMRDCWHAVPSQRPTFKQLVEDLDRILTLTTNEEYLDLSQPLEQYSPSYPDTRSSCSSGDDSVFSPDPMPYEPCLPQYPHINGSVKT

Turning to `CCn1ncc2c1CC[C@H](Nc1nc3c(-c4ccc(F)c(Cl)c4)cccn3n1)C2` [Example S-61, (S)-[8-(3-Chloro-4-fluoro-phenyl)-[1,2,4]triazolo[1,5-a]pyridine-2-yl]-(1-ethyl-4,5,6,7-tetrahydro-1H-indazol-5-yl)-amine], the inhibition at 10 µM was less than 40% in test [1] (setting [6]); 13% in test [1] (setting [7]); less than 40% in test [2] (setting [8]); 13% in test [2] (setting [9]); less than 40% in test [4] (setting [10]); -21% in test [4] (setting [11]). Besides, the “No. of kinases with <40% inhibition” value in test [3] is 15/15.

Take `CCn1ncc2c1CCC(Nc1nc3c(-c4cccc(Cl)c4)cccn3n1)C2` (stereo not drawn) [Example 59, [8-(3-Chloro-phenyl)-[1,2,4]triazolo[1,5-a]pyridine-2-yl]-(1-ethyl-4,5,6,7-tetrahydro-1H-indazol-5-yl)-amine]: the inhibition at 10 µM was less than 40% in test [1] (setting [6]); 11% in test [1] (setting [7]); less than 40% in test [2] (setting [8]); 19% in test [2] (setting [9]); less than 40% in test [4] (setting [10]); -21% in test [4] (setting [11]). Moreover, the “No. of kinases with <40% inhibition” value in test [3] was 13/15.

As for `CCn1ncc2c1CCC(Nc1nc3c(-c4cncc(Cl)c4)cccn3n1)C2` (stereo not drawn) [Example 73, [8-(5-Chloro-pyridin-3-yl)-[1,2,4]triazolo[1,5-a]pyridine-2-yl]-(1-ethyl-4,5,6,7-tetrahydro-1H-indazol-5-yl)-amine], the inhibition at 10 µM was less than 40% in test [1] (setting [6]); 26% in test [1] (setting [7]); less than 40% in test [2] (setting [8]); 21% in test [2] (setting [9]); more than 80% in test [4] (setting [10]); 85% in test [4] (setting [11]). The “No. of kinases with <40% inhibition” value in test [3] is 8/15.

With `CCn1ncc2c1CC[C@@H](Nc1nc3c(-c4ccc(F)c(Cl)c4)cccn3n1)C2` [Example R-61, (R)-[8-(3-Chloro-4-fluoro-phenyl)-[1,2,4]triazolo[1,5-a]pyridine-2-yl]-(1-ethyl-4,5,6,7-tetrahydro-1H-indazol-5-yl)-amine], the inhibition at 10 µM in test [1] (setting [6]) was less than 40%; in test [1] (setting [7]), 12%; in test [2] (setting [8]) it was less than 40%; in test [2] (setting [9]), 3%; in test [4] (setting [10]) it was less than 40%; in test [4] (setting [11]), -8%. The “No. of kinases with <40% inhibition” value in test [3] is on record as 15/15.

As to `CCn1ncc2c1CCC(Nc1nc3c(-c4cnccc4OC)cccn3n1)C2` (stereo not drawn) [Example 68, (1-Ethyl-4,5,6,7-tetrahydro-1H-indazol-5-yl)-[8-(4-methoxy-pyridin-3-yl)-[1,2,4]triazolo[1,5-a]pyridine-2-yl]-amine], the inhibition at 10 µM in test [1] (setting [6]) is less than 40%; in test [1] (setting [7]) it was 28%; in test [2] (setting [8]), less than 40%; in test [2] (setting [9]), 28%; in test [4] (setting [10]), less than 40%; in test [4] (setting [11]), 39%. The “No. of kinases with <40% inhibition” value in test [3] is given as 11/15.

Take `CCn1ncc2c1CCC(Nc1nc3c(-c4cccnc4)cccn3n1)C2` (stereo not drawn) [Example 63, (1-Ethyl-4,5,6,7-tetrahydro-1H-indazol-5-yl)-(8-pyridin-3-yl-[1,2,4]triazolo[1,5-a]pyridine-2-yl)-amine]: the inhibition at 10 µM in test [1] (setting [6]) was less than 40%; in test [1] (setting [7]) it was 16%; in test [2] (setting [8]), less than 40%; in test [2] (setting [9]), 15%; in test [4] (setting [10]), less than 40%; in test [4] (setting [11]), 29%. Besides, the “No. of kinases with <40% inhibition” value in test [3] is listed as 12/15.

On to `CCn1ncc2c1CCC(Nc1nc3c(-c4cncc(OC)c4)cccn3n1)C2` (stereo not drawn) [Example 70, (1-Ethyl-4,5,6,7-tetrahydro-1H-indazol-5-yl)-[8-(5-methoxy-pyridin-3-yl)-[1,2,4]triazolo[1,5-a]pyridine-2-yl]-amine], for which the inhibition at 10 µM in test [1] (setting [6]) was less than 40%; in test [1] (setting [7]) it was 12%; in test [2] (setting [8]) it was less than 40%; in test [2] (setting [9]) it was 15%; in test [4] (setting [10]), 40 to 80%; in test [4] (setting [11]) it was 51%. In test [3], the “No. of kinases with <40% inhibition” value is given as 11/15.

For the molecule `CCn1ncc2c1CCC(Nc1nc3c(-c4cccnc4OC)cccn3n1)C2` (stereo not drawn) [Example 69, (1-Ethyl-4,5,6,7-tetrahydro-1H-indazol-5-yl)-[8-(2-methoxy-pyridin-3-yl)-[1,2,4]triazolo[1,5-a]pyridine-2-yl]-amine], the inhibition at 10 µM in test [1] (setting [6]) was less than 40%; in test [1] (setting [7]) it was 1%; in test [2] (setting [8]), less than 40%; in test [2] (setting [9]), 13%; in test [4] (setting [10]), less than 40%; in test [4] (setting [11]), 25%. The “No. of kinases with <40% inhibition” value in test [3] is 15/15.

As to `CCn1nnc2c1CCC(Nc1nc3c(-c4ccc(F)cc4C)cccn3n1)C2` (stereo not drawn) [Example 51, (1-Ethyl-4,5,6,7-tetrahydro-1H-benzotriazol-5-yl)-[8-(4-fluoro-2-methyl-phenyl)-[1,2,4]triazolo[1,5-a]pyridine-2-yl]-amine], the inhibition at 10 µM is less than 40% in test [1] (setting [6]); 28% in test [1] (setting [7]); less than 40% in test [2] (setting [8]); 6% in test [2] (setting [9]); less than 40% in test [4] (setting [10]); 8% in test [4] (setting [11]). For the same molecule, the “No. of kinases with <40% inhibition” value in test [5] is listed as 15/15.
